# Laboratory results as given in patent US9669003B2, “Use of flavone and flavanone derivatives in preparation of sedative and hypnotic drugs” (priority 2012, dated 2017).
# Marks after values point to notes of the source that are not given here.
# Legend:
# Assay type in all cases: in vivo
# Kunming mice [1] = experiment: Influence on hypnosis effect with pentobarbital sodium doses below the threshold (25 mg/kg i.p.); settings: pentobarbital sodium 25 mg/kg i.p. 60 min later, sleep observed in 30 min, n = 10
# Outline: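 Percentage of mice sleeping within 30 min after subthreshold pentobarbital sodium (25 mg/kg i.p.), defined by loss of righting reflex over 1 min, analysed by χ2. Compound in 0.5% CMC-Na given intragastrically at 25/50/100 mg/kg 60 min before; groups of 10 Kunming mice, both sexes.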
# Kunming mice [2] = experiment: Influence on hypnosis effect with pentobarbital sodium doses at the threshold (50 mg/kg i.p.); settings: pentobarbital sodium 50 mg/kg i.p. 60 min later, x ± s, n = 10
# Outline: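 Pentobarbital sodium (0.3%, 50 mg/kg i.p.) injected 60 min after a single intragastric dose (25, 50, 100 mg/kg, 0.5% CMC-Na vehicle) in Kunming mice, 10 per group, sexes balanced. Onset and length of sleep (righting reflex lost over 1 min) analysed by ANOVA; sleeping incidence by χ2 test.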
# Kunming mice [3] = experiment: Influence on autonomic activity of normal mice (ZIL-2 mice autonomic activity meter, counts within 10 min); settings: intragastric, x ± s, n = 10; for Times of activities in 1 h after drug administration/10 min: 1 h after administration; for Times of activities in 2 h after drug administration/10 min: 2 h after administration; for Times of activities in 24 h after drug administration/10 min: 24 h after administration
# Outline: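 Activity counts during a 10-min window were taken at 1, 2 and 24 h after dosing in groups of 10 mixed-sex Kunming mice. Compounds were given in 0.5% CMC-Na at 25, 50 or 100 mg/kg. Statistics used Levene's homogeneity test, ANOVA and Dunnett's multiple comparisons.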
# [4] = test drug 25 mg/kg intragastric single dose
# [5] = test drug 50 mg/kg intragastric single dose
# [6] = test drug 100 mg/kg intragastric single dose
# [7] = 25 mg/kg intragastric single dose
# [8] = 50 mg/kg intragastric single dose
# [9] = 100 mg/kg intragastric single dose
Structure (SMILES),Number of sleeping animals (Kunming mice [1]; [4]),rate of sleeping (%) (Kunming mice [1]; [4]),Number of sleeping animals (Kunming mice [1]; [5]),rate of sleeping (%) (Kunming mice [1]; [5]),Number of sleeping animals (Kunming mice [1]; [6]),rate of sleeping (%) (Kunming mice [1]; [6]),duration of sleep (Kunming mice [2]; [7]) [min],time to sleep (Kunming mice [2]; [7]) [min],duration of sleep (Kunming mice [2]; [8]) [min],time to sleep (Kunming mice [2]; [8]) [min],duration of sleep (Kunming mice [2]; [9]) [min],time to sleep (Kunming mice [2]; [9]) [min],Times of activities in 1 h after drug administration/10 min (Kunming mice [3]; 25 mg/kg),Times of activities in 2 h after drug administration/10 min (Kunming mice [3]; 25 mg/kg),Times of activities in 24 h after drug administration/10 min (Kunming mice [3]; 25 mg/kg),Times of activities in 1 h after drug administration/10 min (Kunming mice [3]; 50 mg/kg),Times of activities in 2 h after drug administration/10 min (Kunming mice [3]; 50 mg/kg),Times of activities in 24 h after drug administration/10 min (Kunming mice [3]; 50 mg/kg),Times of activities in 1 h after drug administration/10 min (Kunming mice [3]; 100 mg/kg),Times of activities in 2 h after drug administration/10 min (Kunming mice [3]; 100 mg/kg),further results
CCCc1cc(-c2cc(=O)c3c(I)cc(CCS(=O)(=O)O)cc3o2)cc(C(N)=O)c1C(=O)O [Example 23],3,30%,4,40* %,7,70** %,22.77 ± 25.89,5.35 ± 2.33,28.59 ± 26.98,5.17 ± 2.26,64.89 ± 45.78,3.14 ± 1.21,287.2 ± 45.4 /10 min,263.2 ± 45.2 /10 min,307.2 ± 82.1 /10 min,229.9 ± 40.6 /10 min,244.7 ± 47.6 /10 min,300.7 ± 71.4 /10 min,135.5 ± 35.7 /10 min,181.0 ± 38.2 /10 min,Times of activities in 24 h after drug administration/10 min (Kunming mice [3]; 100 mg/kg): 292.8 ± 90.5 /10 min
"COc1cc(-c2cc(=O)c3c(OC)c(OC)c(OC)cc3o2)cc(OC)c1OC [Example 13, 5,6,7,3′,4′,5′-hexamethoxyl-flavone]",4,40* %,6,60** %,7,70** %,39.25 ± 17.25,4.26 ± 1.23,57.33 ± 29.41,3.93 ± 1.15,59.23 ± 25.36,3.83 ± 1.21,293.2 ± 47.1 /10 min,278.5 ± 42.8 /10 min,302.8 ± 67.2 /10 min,280.7 ± 61.3 /10 min,278.6 ± 47.5 /10 min,309.2 ± 81.3 /10 min,247.2 ± 35.6 /10 min,225.3 ± 44.2 /10 min,Times of activities in 24 h after drug administration/10 min (Kunming mice [3]; 100 mg/kg): 291.5 ± 69.5 /10 min
O=C1CC(c2ccc(O)c(O)c2)Oc2cc(O)cc(O)c21 (stereo not drawn) [Example 71],3,30%,5,50* %,6,60** %,30.48 ± 22.67,5.55 ± 1.83,36.63 ± 20.19,3.73 ± 1.39,56.62 ± 24.57,3.82 ± 1.40,301.5 ± 58.2 /10 min,267.8 ± 32.9 /10 min,318.0 ± 66.9 /10 min,278.9 ± 45.0 /10 min,263.0 ± 46.3 /10 min,322.9 ± 81.4 /10 min,249.3 ± 41.3 /10 min,245.8 ± 39.6 /10 min,Times of activities in 24 h after drug administration/10 min (Kunming mice [3]; 100 mg/kg): 325.7 ± 60.9 /10 min
C=Cc1cc2c(=O)cc(-c3ccc(CC)c(N)c3)oc2c(C2CCSC2)c1C(N)=O (stereo not drawn) [Example 30],5,50** %,6,60** %,8,80*** %,38.82 ± 15.41,4.37 ± 1.58,43.66 ± 21.43,3.73 ± 1.22,58.74 ± 19.57,3.25 ± 1.31,289.2 ± 45.7 /10 min,264.1 ± 42.2 /10 min,302.2 ± 87.3 /10 min,235.8 ± 42.1 /10 min,244.5 ± 48.2 /10 min,294.5 ± 70.6 /10 min,134.6 ± 35.7 /10 min,173.5 ± 39.2 /10 min,Times of activities in 24 h after drug administration/10 min (Kunming mice [3]; 100 mg/kg): 288.8 ± 92.1 /10 min
"COc1cc(OC)c2c(=O)cc(-c3ccc(OC)c(O)c3)oc2c1 [Example 4, 3′-hydroxyl-5,7,4′-trimethoxyl-flavone]",6,60** %,7,70** %,8,80*** %,63.65 ± 19.54,3.75 ± 1.81,69.91 ± 19.82,3.41 ± 1.69,81.66 ± 30.31,2.51 ± 1.61,258.2 ± 44.2 /10 min,250.3 ± 53.9 /10 min,309.1 ± 76.1 /10 min,219.3 ± 42.7 /10 min,223.5 ± 41.3 /10 min,318.4 ± 96.3 /10 min,124.2 ± 49.1 /10 min,127.2 ± 41.9 /10 min,Times of activities in 24 h after drug administration/10 min (Kunming mice [3]; 100 mg/kg): 303.2 ± 90.1 /10 min
O=c1cc(-c2cc(O)c(Oc3ccccc3)c(CCCCCCCCCCCCCCCCCCCCCl)c2)oc2cc(C#Cc3ccccc3)cc([N+](=O)[O-])c12 [Example 16],2,20%,4,40* %,6,60** %,25.69 ± 27.26,5.48 ± 2.25,48.11 ± 25.41,4.21 ± 1.53,55.62 ± 19.72,3.86 ± 1.45,319.2 ± 55.4 /10 min,290.6 ± 41.2 /10 min,313.5 ± 68.2 /10 min,295.5 ± 41.3 /10 min,250.4 ± 41.4 /10 min,314.1 ± 82.3 /10 min,273.4 ± 48.3 /10 min,224.7 ± 46.3 /10 min,Times of activities in 24 h after drug administration/10 min (Kunming mice [3]; 100 mg/kg): 324.7 ± 79.7 /10 min
"COc1cc(OC)c2c(=O)cc(-c3cc(OC)c(OC)c(OC)c3)oc2c1 [Example 1, 5,7,3′,4′,5′-penta methoxyl-flavone]",5,50** %,7,70** %,10,100*** %,65.42 ± 27.30,3.84 ± 1.65,78.60 ± 14.67,3.54 ± 1.44,98.33 ± 21.63,2.75 ± 1.62,215.3 ± 40.1 /10 min,211.2 ± 36.3 /10 min,274.4 ± 81.2 /10 min,137.1 ± 52.3 /10 min,168.5 ± 57.9 /10 min,275.2 ± 79.3 /10 min,98.2 ± 41.9 /10 min,96.2 ± 55.7 /10 min,Times of activities in 24 h after drug administration/10 min (Kunming mice [3]; 100 mg/kg): 301.2 ± 80.7 /10 min
